Assay results as given in PubChem BioAssay (NCI).
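The compound was tested at five concentrations on cells cultured in 96-well plates, with a 48-hour exposure period. TGI: total growth inhibition.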

Experiments:
Test in all cases: DTP human tumour cell line panel, 48 h
A498 renal = system: A498 renal
HT29 colon = system: HT29 colon
NCI-H226 lung = system: NCI-H226 lung
OVCAR-4 ovarian = system: OVCAR-4 ovarian
RPMI-8226 leukemia = system: RPMI-8226 leukemia
SNB-19 CNS = system: SNB-19 CNS
SR leukemia = system: SR leukemia
UACC-62 melanoma = system: UACC-62 melanoma
MDA-MB-435 = system: MDA-MB-435
BT-549 breast = system: BT-549 breast

Structure (SMILES) | TGI (A498 renal) [µM] | TGI (HT29 colon) [µM] | TGI (NCI-H226 lung) [µM] | TGI (OVCAR-4 ovarian) [µM] | TGI (RPMI-8226 leukemia) [µM] | TGI (SNB-19 CNS) [µM] | TGI (SR leukemia) [µM] | TGI (UACC-62 melanoma) [µM] | TGI (MDA-MB-435) [µM] | TGI (BT-549 breast) [µM]
CCC(=O)OC1CCn2c1nc1c2C(=O)C(C)=C(NC(C)=O)C1=O (centres undefined) | 32.5 | 3.59 | 3.27 | 1.67 | 5.66 | 6.75 | 5.66 | 3.43 |  | 
COc1ccccc1-n1cnc2c1NC(C)(C)N=C2C(N)=O | > 100 | > 100 | > 100 | > 100 | > 100 | > 100 | > 100 | > 100 | > 100 | 
O=C1CC(c2ccc(Cl)cc2)C2(C(=O)NC(=S)NC2=O)C(c2ccc(Cl)cc2)C1 (centres undefined) | 31.4 | 32.4 | 66.9 | 37.9 | 51.2 | 36.6 | > 100 | 34.4 | 39.9 | 
C[N+]1=C(c2cccnc2/C=N/O)OCC1(C)C | > 100 | > 100 | > 100 | > 100 |  | > 100 | > 100 | > 100 |  | 
CC(=O)c1ccc(N2C(=O)C3c4[nH]c5ccccc5c4C4CCC(C(C)(C)C)CC4C3C2=O)cc1 (centres undefined) | 71.3 | 32.6 | 47.6 | 94.8 | 54 | > 100 | 70.9 | 59.3 |  | 
CC[C@H](C)[C@H](NC(=O)N(CCC#N)CCN(CCN(C(=O)N[C@@H](Cc1ccccc1)C(=O)OC)c1ccccc1)C(=O)N[C@H](C(=O)OC)C(C)C)C(=O)OC | 36.8 |  | 48.8 | 62 | 29.1 | 35.9 |  | 28.6 | 36.3 | 44.7
O=C(N/N=C(/COc1ccccc1)N=Cc1ccncc1)c1ccncc1 | > 100 | > 100 |  | > 100 | > 100 | > 100 |  | > 100 | > 100 | > 100
Cc1ccc2nc(N)[nH]c(=O)c2c1Sc1ccncc1 | > 100 | > 100 |  | > 100 | > 100 | > 100 | > 100 | > 31.6 |  | 
C/C=C1\CC(C(=O)OCC)CCCCCCC1=O (centres undefined) | > 100 | > 100 | > 100 | > 100 |  | > 100 |  | > 100 | > 100 | > 100
CC(=N/NC(=S)N1CCCCCC1)/C(C)=N\NC(=S)N1CCCCCC1 | 3.47 | 7.08 | 9.23 |  | > 100 | 48.1 |  | 12.7 | 3.41 | 11
CCOC(=O)/C=C/n1c2ccccc2c(=O)c2cc(OC)ccc21 | > 100 | > 100 | > 100 | > 100 |  | > 100 | > 100 | > 100 |  | 
Cc1ccc(S(=O)(=O)NC(=O)C2S(=O)(=O)OCCOS2(=O)=O)cc1 |  | > 100 | > 100 | > 100 | > 100 | > 100 | > 100 | > 100 |  | 
